Key:
[1] = Free energy of hydration by Free Energy Machine Learning Model (FML); conditions: absolute error vs Exp (hydration)
Text: Machine learning models can be used for free energy determination.

[2] = Free energy of hydration predicted with the QM-parameterized force field model (ARROW FF), classical MD and PIMD simulation in a water box; conditions: for water Arrow MD Error / water Arrow PIMD8 Error: Table 3; for water Arrow MD Error: absolute error of MD hydration free energy vs experiment; for water Arrow PIMD8 Error: absolute error of PIMD8 hydration free energy vs experiment; for Arrow PIMD8 Error: absolute error vs Exp (hydration)
How it was run: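 Classical and PIMD runs (MTS integrator, MTTK barostat at 1 atm) followed minimization and 50 ps equilibration, with 1 ns NPT production per window. Fifteen unequally spaced lambda windows removed all solute-solvent interactions simultaneously in a 32 Å water box. Hydration free energy computed by Bennett acceptance ratio and thermodynamic integration.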

[3] = Free energy of hydration by COSMO-RS
How it was run: (§1)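 Computed, not measured. COSMO: run in MolPro on the dataset. SMD/PCM: predicted values supplied externally. SMD, PCM, COSMO-RS restricted to the overlap with the QM-parameterized force field molecule set.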

[4] = Table 3; free energy of hydration, experimental; cited from earlier work
[5] = Free energy of hydration by COSMO implicit solvent model (MolPro ver. 2012); conditions: absolute error vs Exp (hydration)
How it was run: as §1

[6] = implicit solvent model, values received; cited from earlier work
[7] = Free energy of hydration by Polarizable Continuum Model (PCM); conditions: absolute error vs Exp (hydration)
How it was run: as §1

[8] = Free energy of hydration by Solvation Model Dielectric (SMD) implicit solvent model; conditions: absolute error vs Exp (hydration)
How it was run: as §1

[9] = implicit solvent model, values received; cited from earlier work; remark: listed apart in the source

| Structure (SMILES) | FML error [1] [kcal/mol] | water Arrow MD Error [2] [kcal/mol] | water Arrow PIMD8 Error [2] [kcal/mol] | Arrow PIMD8 Error [2] [kcal/mol] | COSMO-RS error [3] [kcal/mol] | water Exp (hydration) [4] [kcal/mol] | COSMO/Molpro Error [5] [kcal/mol] | SMD free energy of hydration [6] [kcal/mol] | PCM Error [7] [kcal/mol] | SMD Error [8] [kcal/mol] | PCM free energy of hydration [9] [kcal/mol] |
| --- | --- | --- | --- | --- | --- | --- | --- | --- | --- | --- | --- |
| CCC(C)O (centres unmarked) [2-Butanol] | 0.61 | 1.41 | 0.08 | 0.08 | 0.77 | -4.58 | 1.11 |  |  |  |  |
| CCCC(C)O (centres unmarked) [2-Pentanol] | 0.40 | 1.68 | 0.08 | 0.08 |  | -4.39 | 1.38 |  |  |  |  |
| C1CCCC1 [Cyctopentane] | 0.32 |  |  | 0.12 | 0.17 |  |  | 1.30 | 1.40 | 0.10 | -0.20 |
| CCCCCO [1-Pentanol] | 0.30 | 1.18 | 0.05 | 0.05 | 0.11 | -4.47 | 2.21 | -4.00 | 1.17 | 0.47 | -3.30 |
| CC=O [acetaldehyde] | 0.03 | 0.18 | 0.27 | 0.27 | 0.18 |  | 3.97 |  | 0.20 | 0.30 |  |
| CCC(O)CC [3-Pentanol] | 0.58 | 1.36 | 0.15 | 0.15 |  | -4.35 | 1.01 |  |  |  |  |
| C1CC1 [Cyclopropane] | 0.76 | 0.30 | 0.29 | 0.29 | 0.40 | 0.75 | 2.05 | 0.10 | 1.35 | 0.65 | -0.60 |
